We go through seven compounds from patent publication US20250312269A1, “ADMINISTRATION OF A P[…] BY INT[…]” (RESET PHARMACEUTICALS, INC., priority 2022, published 2025).

Read-outs that look alike come from different tables or passages of the source.

The nature of data set [1]: Particle size distribution (PSD) analysis by laser diffraction of feed and micronised compound. The note with it: primary pressure of 4 bar, lens R1/R3/R5 per sample. The data set is classed as physicochemical. How it is done:
In order to provide a small and homogeneous particle size of psychedelic compound in the final suspensions, psilocybin and psilocin were micronised before use. Micronisation was performed by wet bead milling using decafluoropentane as the antisolvent. In a glass vial, 200 mg psychedelic compound and 2 g of 1 mm silica beads were weighed. 3 mL of the antisolvent was added for psilocybin and 2 mL for psilocin. The samples were vortexed for approximately 15 seconds then milled at 530 rpm for 60 minutes.
(§1) The micronised sample was then separated from the silica beads and transferred to a petri dish and left at room temperature to allow for evaporation of the solvent overnight (approximately 18 hours). The dried sample was then collected and characterised by PSD and XRPD.
Particle size analysis was carried out, in single analysis, by laser diffraction using a Sympatec Helos particle size analyser, equipped with a RODOS dry dispersion unit and ASPIROS feeder unit. The lens and primary pressures were varied for each compound tested.

The nature of data set [2]: Non-compartmental analysis of DMT IM bioavailability from digitised published data. Type of data set: in vivo. The conditions noted are these: human, blood, intramuscular, 0.7 mg/kg, 0.7 mg/kg IM. An excerpt: (§2) DMT IM data was digitised from Kaplan et al. “Blood and urine levels of N,N-dimethyltryptamine following administration of psychoactive dosages to human subjects” Psychopharmacologia 38, 239-245 (1974). A one compartment model was used with linear absorption and clearance to describe the human IM data from Kaplan et al. 1974, and is shown schematically in FIG. 3. Mathematically, this model is a series of two linked ordinary differential equations (ODE's) given in equations (7)-(8).
The points are the mean data, and the error bars are plus and minus the SEM. Non-compartmental analysis (NCA) was run to calculate the dose normalised AUC at four dose levels. The bioavailability of the IM data was then calculated, equation (3), at all four dose levels seen in Table 2, due to the IM dose being 0.7 mg/kg the 0.4 mg/kg bioavailability values were taken and therefore bioavailability was assumed to be one for the rest of the modelling.

A short description of data set [3]: One-compartment IM PK model fitted to published DMT IM data. On the set-up: species or system human. The conditions noted are these: estimate (95% CI).
From the text: as §2
Constant ka is the absorption rate constant (units 1/min), Cl is the clearance (units mL/min), Vc is the volume of distribution of the central compartment (units mL).
The model gives a satisfactory fit of the absorption phase, seen in FIG. 5, where the line is the simulate PK model and the points are the raw data. The fitted PK parameters can be found in Table 3.

The nature of data set [4]: XRPD analysis after micronisation. Type of data set: physicochemical. The note with it: wet bead milling in decafluoropentane. How it is done: as §1
X-ray powder diffraction (XRPD) analysis was carried out using a Bruker D2 Phaser powder diffractometer equipped with a LynxEye detector. The specimens were located at the centre of a silicon sample holder within a 5 mm pocket. The samples were continuously spun during data collection and scanned using a step size of 0.02° two theta (28) between […] to 60° two theta, the detailed parameters are summarised in Table 11. The data was processed using Diffrac Plus EVA software (Version 3.1).

For data set [5] the following is noted: cited from earlier work.
The conditions of data set [6]: IV administration; cited from earlier work.
The nature of data set [7]: Solubility assessment in excipients / vehicles.
Data set [8] can be described thus: Two-compartment IV bolus PK model fitted to published psilocin plasma data after psilocybin IV. On the set-up: species or system human. The conditions noted are these: estimate (95% CI). The method, then:
All analysis was performed using the software R and RStudio, with models being defined using analytical and ODE solutions.
Systemic PK parameters were derived for published human bolus psilocybin IV data. Human IV PK data for psilocin after psilocybin was administered was taken from Hasler et al. “Determination of psilocin and 4-hydroxyindole-3-acetic acid in plasma by HPLC-ECD and pharmacokinetic profiles of oral and intravenous psilocybin in man”. Pharm Acta Helv. 1997 June; 72(3):175-84. Model selection was performed by assessing visual fit to data and the respective model AIC's of a one compartment and two compartment IV PK model. These systemic human PK parameters were then used for human intramuscular injection simulations by simulating the PK profiles over a range of doses and absorption rates.
It is assumed that the generation of psilocin is instantaneous and complete once psilocybin is absorbed.
An IV two compartment model best described the IV data from FIG. 2. A two-compartment model gave a good description of the raw data capturing the Cmax and terminal phase well, FIG. 3. The systemic PK parameters can be seen in Table 1 and there are low errors in the parameter estimates.

Data set [9] in a line: Human IM simulations of psilocin exposure, one (native) absorption rate. The note with it: 'native' absorption rate taken from DMT IM model. How it is done:
The model that was used is shown schematically in FIG. 6, mathematically the analytical solution is shown in equations (9)-(14).
Using the absorption rate from modelling the IM DMT data and the human systemic psilocin PK parameters, human IM simulations were run over 1-12 mg doses and the simulated PK profiles can be seen in FIG. 8. […] It was therefore investigated which dose produces the therapeutic plasma level (5 ng/mL) quickly, this can be seen in Table 4.

In the case of `CN(C)CCc1c[nH]c2cccc(O)c12` [Feed psilocin, psilocin], in data set [1], the D10 was 20.36 μm, the D50 was found to be 106.05 μm and the D90 came out at 232.08 μm.

As to `CN(C)CCc1c[nH]c2cccc(OP(=O)(O)O)c12` [Micronised psilocybin, psilocybin], in data set [1], the D10 came to 0.45 μm, the D50 amounted to 1.20 μm and the D90 is 3.13 μm.

In data set [1], `CN(C)CCc1c[nH]c2cccc(O)c12` [Micronised psilocin, psilocin] gave a D10 of 0.44 μm, a D50 of 1.07 μm and a D90 of 2.27 μm.

Consider `CN(C)CCc1c[nH]c2ccccc12` [DMT, N,N-dimethyltryptamine], for which the bioavailability in [2] (AUC of IV infusion dose 0.05 mg/kg) is 46.3%; in data set [2] (AUC of IV infusion dose 0.1 mg/kg), 77.8%; in data set [2] (AUC of IV infusion dose 0.2 mg/kg), 132%; in data set [2] (AUC of IV infusion dose 0.4 mg/kg), 162%. Moreover, the ka in data set [3] (absorption rate constant) was 0.153 (−0.311, 0.616) ^ /min. In addition, in [3] (clearance), the CI is 21900 (4690, 39100) ml/min. Further, the V in data set [3] (0.7 mg/kg IM) is 353000 (−397000, 1100000) ml.

As for `CN(C)CCc1c[nH]c2cccc(OP(=O)(O)O)c12` [psilocybin, [3-(2-dimethylaminoethyl)-1H-indol-4-yl]dihydrogen phosphate], the “chemical degradation upon micronisation (XRPD)” value in data set [4] is given as “no significant chemical degradation”. Besides, in data set [5] (oral dosing), the duration is 4 to 8 h, the “maximum effect (time)” value is 60 to 90 min and the onset of action was 20 to 40 min. For the same compound, in [5] (reported, oral dosing context), the bioavailability entry is on record as “approximately 50%”. In [6], the “duration of the psychological effects” value was 20 minutes and the onset of action is 1 to 2 min. In addition, the “solubility in all the excipients tested” value in data set [7] (non-micronised, 20 excipients) is given as “poor solubility”.

In [1], `CN(C)CCc1c[nH]c2cccc(OP(=O)(O)O)c12` [Feed psilocybin, psilocybin] registered a D10 of 1.16 μm, a D50 of 5.46 μm and a D90 of 16.32 μm.

For `CN(C)CCc1c[nH]c2cccc(O)c12` [psilocin, 4-hydroxy-N,N-dimethyltryptamine], the CI in data set [8] (clearance, fit to 1 mg psilocybin IV data) was 3810 (3340, 4290) ml/min. Also, in data set [8] (distribution rate from peripheral compartment), the k21 is on record as 0.0489 (0.0388, 0.0591) /min. Besides, the k12 in data set [8] (distribution rate to peripheral compartment) was 0.176 (0.144, 0.208) /min. For the same compound, the V in [8] (volume of distribution of central compartment, fit to 1 mg psilocybin IV data) is on record as 88600 (77300, 99900) ml. Also, in [9], the absorption half-life is 4.53 min. Also, the “chemical degradation upon micronisation (XRPD)” value in [4] was “no significant chemical degradation”. For the same compound, in data set [7] (initial solution trials in aqueous vehicles), the “solubility versus pH” value was “higher solubility at acidic pH”. Further, in data set [7] (non-micronised), the “solubility in DMSO and NMP” value is given as “good solubility”.
